# Test: Radiochemical purity and radiochemical stability of ^68GaPSMA-11 by HPLC
# Format: physicochemical
# Conditions: for [^68Ga] Gallium PSMA-11 (sum of stereosiomers), HPLC / [^68Ga] Gallium free, HPLC / [^68Ga] Gallium main degradant, HPLC: t0 h
# Description: Radiochemical Purity and Identification of ^68GaPSMA-11 by HPLC
# Chromatographic Conditions
# Radical Scavenger to be used for the improvement of the radiochemical stability of ^68Ga-PSMA-11, tests were performed according to a varied approach in order to consider all the parameters that may affect the radiochemical purity of the product (activity, pH, volume, amount of Gentisic Acid).
# Stability tests were performed on the freeze dried product containing the final formulation. […] Kits manufactured with the final formulation, indeed, were stored at different stability conditions (2-8° C.; 25° C. and 40° C.) and were tested at different time points for API-assay, Radiochemical Purity and Radiochemical Stability of the radiolabelled product. Radiochemical Purity and Stability were assessed only eluting IRE Generator which represented the most stressful condition in terms of Radioactive Concentration (Volumic Activity).
# [1] = Gentisic Acid 0 μg, IRE 17.19 mCi, 1 mL, pH 5.24
# [2] = Gentisic Acid 200 μg, IRE 17.85 mCi, 1 mL, pH 5.22
# [3] = Gentisic Acid 200 μg, IRE 18.07 mCi, 1 mL, pH 5.25
# [4] = Gentisic Acid 200 μg, ITG 35.92 mCi, 4 mL, pH 4.83
# [5] = Gentisic Acid 400 μg, IRE 17.44 mCi, 1 mL, pH 5.13
# [6] = Gentisic Acid 400 μg, IRE 17.79 mCi, 1 mL, pH 5.11
# [7] = Gentisic Acid 400 μg, ITG 16.9 mCi, 4 mL, pH 4.85
# [8] = Gentisic Acid 400 μg, ITG 31.97 mCi, 4 mL, pH 4.81
# [9] = Gentisic Acid 1000 μg, E&Z 15.65 mCi, 5 mL, pH 3.75
# [10] = Gentisic Acid 1000 μg, IRE 17.1 mCi, 1 mL, pH 5.08
# [11] = Gentisic Acid 1000 μg, ITG 30.9 mCi, 4 mL, pH 4.87
# [12] = final formulation kit at Release, E&Z 15.65 mCi, 5 mL, pH 3.75
# [13] = final formulation kit at Release, E&Z 16.80 mCi, 5 mL, pH 3.75
# [14] = final formulation kit at Release, IRE 32.27 mCi, 1 mL, pH 4.95
# [15] = final formulation kit at Release, IRE 32.95 mCi, 1 mL, pH 5.07
# [16] = final formulation kit at Release, ITG 29.74 mCi, 4 mL, pH 4.67
# [17] = final formulation kit at Release, ITG 30.90 mCi, 4 mL, pH 4.67
# [18] = kit stored 3 months at 2-8° C., IRE 25.76 mCi, 1 mL, pH 5.29
# [19] = kit stored 3 months at 25° C., IRE 24.56 mCi, 1 mL, pH 5.16
# [20] = kit stored 3 months at 40° C., IRE 24.86 mCi, 1 mL, pH 5.23
# [21] = kit stored 6 months at 2-8° C., IRE 19.90 mCi, 1 mL, pH 5.13
# [22] = kit stored 6 months at 25° C., IRE 18.88 mCi, 1 mL, pH 5.09
# [23] = kit stored 6 months at 40° C., IRE 19.34 mCi, 1 mL, pH 5.15
substance,measurement,setting,value
^68Ga-PSMA-11 [[^68Ga] Gallium PSMA-11],time for which the radiolabelled product is stable with high radiochemical purity,400 μg Gentisic Acid,up to 4 hours
same,"[^68Ga] Gallium PSMA-11 (sum of stereosiomers), HPLC",[1],92.71%
same,"[^68Ga] Gallium free, HPLC",[1],0.15%
same,"[^68Ga] Gallium main degradant, HPLC",[1],6.61%
same,"[^68Ga] Gallium PSMA-11 (sum of stereosiomers), HPLC",[2],97.76%
same,"[^68Ga] Gallium free, HPLC",[2],0.00%
same,"[^68Ga] Gallium main degradant, HPLC",[2],1.83%
same,"[^68Ga] Gallium PSMA-11 (sum of stereosiomers), HPLC",[3],98.46%
same,"[^68Ga] Gallium free, HPLC",[3],0.00%
same,"[^68Ga] Gallium main degradant, HPLC",[3],1.21%
same,"[^68Ga] Gallium PSMA-11 (sum of stereosiomers), HPLC",[4],99.56%
same,"[^68Ga] Gallium free, HPLC",[4],0.00%
same,"[^68Ga] Gallium main degradant, HPLC",[4],0.19%
same,"[^68Ga] Gallium PSMA-11 (sum of stereosiomers), HPLC",[5],99.29%
same,"[^68Ga] Gallium free, HPLC",[5],0.00%
same,"[^68Ga] Gallium main degradant, HPLC",[5],0.71%
same,"[^68Ga] Gallium PSMA-11 (sum of stereosiomers), HPLC",[6],98.88%
same,"[^68Ga] Gallium free, HPLC",[6],0.12%
same,"[^68Ga] Gallium main degradant, HPLC",[6],1.00%
same,"[^68Ga] Gallium PSMA-11 (sum of stereosiomers), HPLC",[7],99.16%
same,"[^68Ga] Gallium free, HPLC",[7],0.08%
same,"[^68Ga] Gallium main degradant, HPLC",[7],0.19%
same,"[^68Ga] Gallium PSMA-11 (sum of stereosiomers), HPLC",[8],99.35%
same,"[^68Ga] Gallium free, HPLC",[8],0.00%
same,"[^68Ga] Gallium main degradant, HPLC",[8],0.16%
same,"[^68Ga] Gallium PSMA-11 (sum of stereosiomers), HPLC",[9],99.87%
same,"[^68Ga] Gallium free, HPLC",[9],0.00%
same,"[^68Ga] Gallium main degradant, HPLC",[9],0.00%
same,"[^68Ga] Gallium PSMA-11 (sum of stereosiomers), HPLC",[10],99.67%
same,"[^68Ga] Gallium free, HPLC",[10],0.00%
same,"[^68Ga] Gallium main degradant, HPLC",[10],0.33%
same,"[^68Ga] Gallium PSMA-11 (sum of stereosiomers), HPLC",[11],99.80%
same,"[^68Ga] Gallium free, HPLC",[11],0.01%
same,"[^68Ga] Gallium main degradant, HPLC",[11],0.02%
same,"[^68Ga] Gallium PSMA-11 (sum of stereosiomers), HPLC",[12],99.87%
same,"[^68Ga] Gallium free, HPLC",[12],0.00%
same,"[^68Ga] Gallium main degradant, HPLC",[12],0.00%
same,"[^68Ga] Gallium PSMA-11 (sum of stereosiomers), HPLC",[13],99.68%
same,"[^68Ga] Gallium free, HPLC",[13],0.00%
same,"[^68Ga] Gallium main degradant, HPLC",[13],0.19%
same,"[^68Ga] Gallium PSMA-11 (sum of stereosiomers), HPLC",[14],99.58%
same,"[^68Ga] Gallium free, HPLC",[14],0.00%
same,"[^68Ga] Gallium main degradant, HPLC",[14],0.00%
same,"[^68Ga] Gallium PSMA-11 (sum of stereosiomers), HPLC",[15],99.66%
same,"[^68Ga] Gallium free, HPLC",[15],0.00%
same,"[^68Ga] Gallium main degradant, HPLC",[15],0.23%
same,"[^68Ga] Gallium PSMA-11 (sum of stereosiomers), HPLC",[16],99.81%
same,"[^68Ga] Gallium free, HPLC",[16],0.00%
same,"[^68Ga] Gallium main degradant, HPLC",[16],0.05%
same,"[^68Ga] Gallium PSMA-11 (sum of stereosiomers), HPLC",[17],98.80%
same,"[^68Ga] Gallium free, HPLC",[17],0.01%
same,"[^68Ga] Gallium main degradant, HPLC",[17],0.02%
same,"[^68Ga] Gallium PSMA-11 (sum of stereosiomers), HPLC",[18],99.28%
same,"[^68Ga] Gallium free, HPLC",[18],0.04%
same,"[^68Ga] Gallium main degradant, HPLC",[18],0.55%
same,"[^68Ga] Gallium PSMA-11 (sum of stereosiomers), HPLC",[19],99.22%
same,"[^68Ga] Gallium free, HPLC",[19],0.05%
same,"[^68Ga] Gallium main degradant, HPLC",[19],0.19%
same,"[^68Ga] Gallium PSMA-11 (sum of stereosiomers), HPLC",[20],98.92%
same,"[^68Ga] Gallium free, HPLC",[20],0.07%
same,"[^68Ga] Gallium main degradant, HPLC",[20],0.26%
same,"[^68Ga] Gallium PSMA-11 (sum of stereosiomers), HPLC",[21],99.40%
same,"[^68Ga] Gallium free, HPLC",[21],0.00%
same,"[^68Ga] Gallium main degradant, HPLC",[21],0.47%
same,"[^68Ga] Gallium PSMA-11 (sum of stereosiomers), HPLC",[22],99.32%
same,"[^68Ga] Gallium free, HPLC",[22],0.00%
same,"[^68Ga] Gallium main degradant, HPLC",[22],0.42%
same,"[^68Ga] Gallium PSMA-11 (sum of stereosiomers), HPLC",[23],99.21%
same,"[^68Ga] Gallium free, HPLC",[23],0.04%

# Source: patent US20230165980A1, “METHODS FOR RADIOLABELING PSMA BINDING LIGANDS AND THEIR KITS” (Novartis AG, priority 2020, published 2023)
